Experimental data published in patent publication US10167262B2, “Herbicidal substituted 3-arylpyrazoles” (FMC CORPORATION, priority 2014, dated 2019).

Columns and labels:
Assay type in all cases: in vivo
[1] = test system: wild poinsettia (Euphorbia heterophylla); test: Test E pre-/postemergence greenhouse test, plant response rating 0-100; settings: scale 0 to 100; for Plant response rating, Poinsettia, Wild: Postemergence; for Poinsettia, Wild plant response rating: Preemergence
Summary of the method: (§1)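 Visual control score, 0–100 relative to untreated plants, recorded 14–21 days after spraying. Treatments: preemergence on silt loam seedbeds and postemergence at the 1- to 4-leaf stage, with compound in surfactant-containing solvent.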

[2] = test system: sandbur (southern sandbur, Cenchrus echinatus); test: as above; settings: scale 0 to 100; for Plant response rating, Sandbur: Postemergence; for Sandbur plant response rating: Preemergence
Summary of the method: as §1

[3] = test system: fall panicum (Panicum dichotomiflorum); test: as above; settings: scale 0 to 100; for Plant response rating, Panicum, Fall: Postemergence; for Panicum, Fall plant response rating: Preemergence
Summary of the method: as §1

[4] = test system: palmer pigweed (Amaranthus palmeri); test: as above; settings: scale 0 to 100; for Plant response rating, Pigweed, Palmer: Postemergence; for Pigweed, Palmer plant response rating: Preemergence
Summary of the method: as §1

[5] = test system: waterhemp (common waterhemp, Amaranthus rudis); test: as above; settings: scale 0 to 100; for Plant response rating, Waterhemp: Postemergence; for Waterhemp plant response rating: Preemergence
Summary of the method: as §1

[6] = test system: barnyardgrass (Echinochloa crus-galli); test: as above; settings: scale 0 to 100; for Plant response rating, Barnyardgrass: Postemergence; for Barnyardgrass plant response rating: Preemergence
Summary of the method: as §1

[7] = test system: Brazilian crabgrass (Digitaria horizontalis); test: as above; settings: Postemergence, scale 0 to 100
Summary of the method: as §1

[8] = test system: hairy beggarticks (Bidens pilosa); test: as above; settings: scale 0 to 100; for Plant response rating, Beggarticks: Postemergence; for Beggarticks plant response rating: Preemergence
Summary of the method: as §1

[9] = test system: dayflower (Virginia (VA) dayflower, Commelina virginica); test: as above; settings: scale 0 to 100; for Plant response rating, Dayflower, VA: Postemergence; for Dayflower, VA plant response rating: Preemergence
Summary of the method: as §1

[10] = test system: arrowleaf sida (Sida rhombifolia); test: as above; settings: for Plant response rating, Arrowleaf Sida: Postemergence; for Arrowleaf Sida plant response rating: Preemergence
Summary of the method: as §1

[11] = test system: ducksalad (Heteranthera limosa); test: Test B flooded paddy test, plant response rating 0-100; settings: Flood, 250 g ai/ha; scale 0 to 100 (0 no effect, 100 complete control); 13 to 15 days
Summary of the method: (§2)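 Under a constant 3 cm flood, test compounds went directly into the paddy water. Following 13 to 15 days of greenhouse growth, treated species and controls were compared by eye.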

rice (Oryza sativa) = test: as above; settings: Flood, 250 g ai/ha; scale 0 to 100 (0 no effect, 100 complete control); 13 to 15 days
Summary of the method: as §2

[12] = test system: sedge, umbrella (small-flower umbrella sedge, Cyperus difformis); test: as above; settings: Flood, 250 g ai/ha; scale 0 to 100 (0 no effect, 100 complete control); 13 to 15 days
Summary of the method: as §2

[13] = test system: barnyardgrass (Echinochloa crus-galli); test: as above; settings: Flood, 250 g ai/ha; scale 0 to 100 (0 no effect, 100 complete control); 13 to 15 days
Summary of the method: as §2

For `O=C(c1ccccc1)c1cn(S(=O)(=O)CC(F)(F)F)nc1-c1cc(Cl)cc(Cl)c1` [Compound 3], the “Plant response rating, Poinsettia, Wild” value ([1]; 31 g ai/ha) was 0, the “Plant response rating, Poinsettia, Wild” value ([1]; 62 g ai/ha) was 0 and the “Plant response rating, Poinsettia, Wild” value ([1]; 125 g ai/ha) was 0. For the same compound, the “Plant response rating, Poinsettia, Wild” value ([1]; 250 g ai/ha) was 15, the “Plant response rating, Poinsettia, Wild” value ([1]; 500 g ai/ha) was 10 and the “Poinsettia, Wild plant response rating” value ([1]; 125 g ai/ha) was 0. The “Poinsettia, Wild plant response rating” value ([1]; 250 g ai/ha) was 0, the “Poinsettia, Wild plant response rating” value ([1]; 500 g ai/ha) was 0 and the “Plant response rating, Sandbur” value ([2]; 31 g ai/ha) was 0. For the same compound, the “Plant response rating, Sandbur” value ([2]; 62 g ai/ha) was 0, the “Plant response rating, Sandbur” value ([2]; 125 g ai/ha) was 0 and the “Plant response rating, Sandbur” value ([2]; 250 g ai/ha) was 0. The “Plant response rating, Sandbur” value ([2]; 500 g ai/ha) was 0, the “Sandbur plant response rating” value ([2]; 31 g ai/ha) was 0 and the “Sandbur plant response rating” value ([2]; 62 g ai/ha) was 0. For the same compound, the “Sandbur plant response rating” value ([2]; 125 g ai/ha) was 15, the “Sandbur plant response rating” value ([2]; 250 g ai/ha) was 15 and the “Sandbur plant response rating” value ([2]; 500 g ai/ha) was 90. For the same compound, the “Plant response rating, Panicum, Fall” value ([3]; 31 g ai/ha) was 0, the “Plant response rating, Panicum, Fall” value ([3]; 62 g ai/ha) was 0 and the “Plant response rating, Panicum, Fall” value ([3]; 125 g ai/ha) was 0. For the same compound, the “Plant response rating, Panicum, Fall” value ([3]; 250 g ai/ha) was 0, the “Plant response rating, Panicum, Fall” value ([3]; 500 g ai/ha) was 0 and the “Panicum, Fall plant response rating” value ([3]; 31 g ai/ha) was 0. For the same compound, the “Panicum, Fall plant response rating” value ([3]; 62 g ai/ha) was 0, the “Panicum, Fall plant response rating” value ([3]; 125 g ai/ha) was 0 and the “Panicum, Fall plant response rating” value ([3]; 250 g ai/ha) was 0. The “Panicum, Fall plant response rating” value ([3]; 500 g ai/ha) was 0, the “Plant response rating, Pigweed, Palmer” value ([4]; 31 g ai/ha) was 40 and the “Plant response rating, Pigweed, Palmer” value ([4]; 62 g ai/ha) was 50. For the same compound, the “Plant response rating, Pigweed, Palmer” value ([4]; 125 g ai/ha) was 75, the “Plant response rating, Pigweed, Palmer” value ([4]; 250 g ai/ha) was 90 and the “Plant response rating, Pigweed, Palmer” value ([4]; 500 g ai/ha) was 75. The “Pigweed, Palmer plant response rating” value ([4]; 31 g ai/ha) was 0, the “Pigweed, Palmer plant response rating” value ([4]; 62 g ai/ha) was 20 and the “Pigweed, Palmer plant response rating” value ([4]; 125 g ai/ha) was 65. The “Pigweed, Palmer plant response rating” value ([4]; 250 g ai/ha) was 50, the “Pigweed, Palmer plant response rating” value ([4]; 500 g ai/ha) was 100 and the “Plant response rating, Waterhemp” value ([5]; 31 g ai/ha) was 95. For the same compound, the “Plant response rating, Waterhemp” value ([5]; 62 g ai/ha) was 98, the “Plant response rating, Waterhemp” value ([5]; 125 g ai/ha) was 98 and the “Plant response rating, Waterhemp” value ([5]; 250 g ai/ha) was 90. The “Plant response rating, Waterhemp” value ([5]; 500 g ai/ha) was 98, the “Waterhemp plant response rating” value ([5]; 31 g ai/ha) was 0 and the “Waterhemp plant response rating” value ([5]; 62 g ai/ha) was 50. For the same compound, the “Waterhemp plant response rating” value ([5]; 125 g ai/ha) was 75, the “Waterhemp plant response rating” value ([5]; 250 g ai/ha) was 85 and the “Waterhemp plant response rating” value ([5]; 500 g ai/ha) was 98. The “Plant response rating, Barnyardgrass” value ([6]; 31 g ai/ha) was 0, the “Plant response rating, Barnyardgrass” value ([6]; 62 g ai/ha) was 0 and the “Plant response rating, Barnyardgrass” value ([6]; 125 g ai/ha) was 0. The “Plant response rating, Barnyardgrass” value ([6]; 250 g ai/ha) was 0, the “Plant response rating, Barnyardgrass” value ([6]; 500 g ai/ha) was 0 and the “Barnyardgrass plant response rating” value ([6]; 31 g ai/ha) was 0. The “Barnyardgrass plant response rating” value ([6]; 62 g ai/ha) was 0, the “Barnyardgrass plant response rating” value ([6]; 125 g ai/ha) was 0 and the “Barnyardgrass plant response rating” value ([6]; 250 g ai/ha) was 0. The “Barnyardgrass plant response rating” value ([6]; 500 g ai/ha) was 0, the “Plant response rating, Crabgrass, Brazil” value ([7]; 31 g ai/ha) was 0 and the “Plant response rating, Crabgrass, Brazil” value ([7]; 62 g ai/ha) was 0. The “Plant response rating, Crabgrass, Brazil” value ([7]; 125 g ai/ha) was 0, the “Plant response rating, Crabgrass, Brazil” value ([7]; 250 g ai/ha) was 0 and the “Plant response rating, Crabgrass, Brazil” value ([7]; 500 g ai/ha) was 0. The “Plant response rating, Beggarticks” value ([8]; 31 g ai/ha) was 60, the “Plant response rating, Beggarticks” value ([8]; 62 g ai/ha) was 95 and the “Plant response rating, Beggarticks” value ([8]; 125 g ai/ha) was 98. For the same compound, the “Plant response rating, Beggarticks” value ([8]; 250 g ai/ha) was 98, the “Plant response rating, Beggarticks” value ([8]; 500 g ai/ha) was 98 and the “Beggarticks plant response rating” value ([8]; 31 g ai/ha) was 0. For the same compound, the “Beggarticks plant response rating” value ([8]; 62 g ai/ha) was 0, the “Beggarticks plant response rating” value ([8]; 125 g ai/ha) was 25 and the “Beggarticks plant response rating” value ([8]; 250 g ai/ha) was 25. The “Beggarticks plant response rating” value ([8]; 500 g ai/ha) was 30, the “Plant response rating, Dayflower, VA” value ([9]; 31 g ai/ha) was 0 and the “Plant response rating, Dayflower, VA” value ([9]; 62 g ai/ha) was 0. For the same compound, the “Plant response rating, Dayflower, VA” value ([9]; 125 g ai/ha) was 0, the “Plant response rating, Dayflower, VA” value ([9]; 250 g ai/ha) was 0 and the “Plant response rating, Dayflower, VA” value ([9]; 500 g ai/ha) was 0. For the same compound, the “Dayflower, VA plant response rating” value ([9]; 125 g ai/ha) was 0, the “Dayflower, VA plant response rating” value ([9]; 250 g ai/ha) was 0 and the “Dayflower, VA plant response rating” value ([9]; 500 g ai/ha) was 0. For the same compound, the “Plant response rating, Arrowleaf Sida” value ([10]; 31 g ai/ha, scale 0 to 100) was 85, the “Plant response rating, Arrowleaf Sida” value ([10]; 62 g ai/ha, scale 0 to 100) was 95 and the “Plant response rating, Arrowleaf Sida” value ([10]; 125 g ai/ha, scale 0 to 100) was 90. For the same compound, the “Plant response rating, Arrowleaf Sida” value ([10]; 250 g ai/ha, scale 0 to 100) was 95, the “Plant response rating, Arrowleaf Sida” value ([10]; 500 g ai/ha, scale 0 to 100 (0 no effect, 100 complete control)) was 98 and the “Arrowleaf Sida plant response rating” value ([10]; 31 g ai/ha, scale 0 to 100) was 0. For the same compound, the “Arrowleaf Sida plant response rating” value ([10]; 62 g ai/ha, scale 0 to 100) was 40, the “Arrowleaf Sida plant response rating” value ([10]; 125 g ai/ha, scale 0 to 100) was 70 and the “Arrowleaf Sida plant response rating” value ([10]; 250 g ai/ha, scale 0 to 100) was 90. The “Arrowleaf Sida plant response rating” value ([10]; 500 g ai/ha, scale 0 to 100) was 98, the “Plant response rating, Ducksalad” value [11] was 0 and the “Plant response rating, Rice” value (rice (Oryza sativa)) was 0. For the same compound, the “Plant response rating, Sedge, Umbrella” value [12] was 0 and the “Plant response rating, Barnyardgrass” value [13] was 0.
